In this test the target is GDP-bound KRAS protein (aa 1-169), containing both G12C and C118A amino acid substitutions (Homo sapiens, UniProt P01116, C118A/G12C). Kind of test: Coupled Nucleotide Exchange Assay (SOS-mediated nucleotide exchange, AlphaScreen). The test is classed as biochemical. To be noted: compound pre-incubation either 5 min or 2 hours (not stated per compound); SOS and GTP added, cRAF AlphaScreen read-out. The method, then:
For compounds in Table 6, the following assay conditions were employed:
Coupled Nucleotide Exchange Assay: Purified GDP-bound KRAS protein (aa 1-169), containing both G12C and C118A amino acid substitutions and an N-terminal His-tag, was pre-incubated in assay buffer (25 mM HEPES pH 7.4, 10 mM MgCl2, and 0.01% Triton X-100) with a compound dose-response titration for either 5 min or 2 hours (see Table 15). Following compound pre-incubation, purified SOS protein (aa 564-1049) and GTP (Roche 10106399001) were added to the assay wells and incubated for an additional 30 min (for 5 min compound pre-incubation) or 1 hour (for 2 hour compound pre-incubation). To determine the extent of inhibition of SOS-mediated nucleotide exchange, purified GST-tagged cRAF (aa 1-149), nickel chelate AlphaLISA acceptor beads (PerkinElmer AL108R), and AlphaScreen glutathione donor beads (PerkinElmer 6765302) were added to the assay wells and incubated for 10 minutes. The assay plates were then read on a PerkinElmer EnVision Multilabel Reader, using AlphaScreen® technology, and data were analyzed using a 4-parameter logistic model to calculate IC50 values.
A general note: In Alpha technology, singlet oxygen from a donor bead excites a nearby acceptor bead.

GDP-bound KRAS protein (aa 1-169), containing both G12C and C118A amino acid substitutions, sequence (P01116 1-169 isoform P01116-2 G12C/C118A): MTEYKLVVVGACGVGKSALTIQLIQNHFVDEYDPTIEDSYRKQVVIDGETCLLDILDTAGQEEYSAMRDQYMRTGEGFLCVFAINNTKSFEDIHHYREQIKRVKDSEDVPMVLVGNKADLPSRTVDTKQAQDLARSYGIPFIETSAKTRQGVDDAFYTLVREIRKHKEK

As a reminder, the IC50 is the concentration at which inhibition is half-maximal. On to `C=CC(=O)N1C[C@H](C)N(C2=NS(=O)(=O)N(c3ccccc3C(C)(C)C)c3nc(-c4c(N)cccc4F)c(Cl)cc32)C[C@H]1C` (single isomer, unassigned) [Example 1-8-2], for which the 50% inhibitory concentration (IC50) is 69300 nM. `C=CC(=O)N1C[C@H](C)N(C2=NS(=O)(=O)N(c3c(CC)cccc3CC)c3nc(-c4c(N)cccc4F)c(Cl)cc32)C[C@H]1C` [Example 1-7, 1-((2R,5S)-4-(7-(2-amino-6-fluorophenyl)-6-chloro-1-(2,6-diethylphenyl)-2,2-dioxido-1H-pyrido[2,3-c][1,2,6]thiadiazin-4-yl)-2,5-dimethyl-1-piperazinyl)-2-propen-1-one]: the IC50 was 890 nM. The value for `C=CC(=O)N1C[C@H](C)N(C2=NS(=O)(=O)Nc3nc(-c4ccccc4F)c(Cl)cc32)C[C@H]1C` [Example 7, 1-((2R,5S)-4-(6-Chloro-7-(2-fluorophenyl)-2,2-dioxido-1H-pyrido[2,3-c][1,2,6]thiadiazin-4-yl)-2,5-dimethyl-1-piperazinyl)-2-propen-1-one] was 16400 nM; that for `C=CC(=O)N1C[C@H](C)N(C2=NS(=O)(=O)N(c3c(C)cc(N)nc3C(C)C)c3nc(-c4ccccc4F)c(Cl)cc32)C[C@H]1C` (atropisomer, axis not shown) [Example 10-1, 1-((2R,5S)-4-(1-(6-amino-4-methyl-2-(2-propanyl)-3-pyridinyl)-6-chloro-7-(2-fluorophenyl)-2,2-dioxido-1H-pyrido[2,3-c][1,2,6]thiadiazin-4-yl)-2,5-dimethyl-1-piperazinyl)-2-propen-1-one] was 3500 nM. The value for `C=CC(=O)N1C[C@H](C)N(C2=NS(=O)(=O)N(c3c(C)cc(CN(C)C)cc3C(C)C)c3nc(-c4c(N)cccc4F)c(Cl)cc32)C[C@H]1C` [Example 8-2, 1-((2R,5S)-4-(7-(2-amino-6-fluorophenyl)-6-chloro-1-(4-((dimethylamino)methyl)-2-methyl-6-(2-propanyl)phenyl)-2,2-dioxido-1H-pyrido[2,3-c][1,2,6]thiadiazin-4-yl)-2,5-dimethyl-1-piperazinyl)-2-propen-1-one] was 1460 nM; that for `C=CC(=O)N1CCN(C2=NS(=O)(=O)N(c3ccccc3CC(C)C)c3nc(-c4ccccc4F)c(Cl)cc32)[C@@H](C)C1` [Example 3-2, 1-((3S)-4-(6-chloro-7-(2-fluorophenyl)-1-(2-(2-methylpropyl)phenyl)-2,2-dioxido-1H-pyrido[2,3-c][1,2,6]thiadiazin-4-yl)-3-methyl-1-piperazinyl)-2-propen-1-one] was 800 nM; that for `C=CC(=O)N1C[C@H](C)N(C2=NS(=O)(=O)N(c3c(N)ncnc3C(C)C)c3nc(-c4ccccc4F)c(Cl)cc32)C[C@H]1C` (single isomer, unassigned) [Example 9-1] was 170 nM. On to `C=CC(=O)N1CCN(C2=NS(=O)(=O)N(c3c(C)ccnc3C(C)C)c3nc(-c4ccccc4F)c(Cl)cc32)[C@@H](C)C1` [Example 2-2, (S)-1-(4-(6-chloro-7-(2-fluorophenyl)-1-(2-isopropyl-4-methylpyridin-3-yl)-2,2-dioxido-1H-pyrido[2,3-c][1,2,6]thiadiazin-4-yl)-3-methylpiperazin-1-yl)prop-2-en-1-one], for which the IC50 was 530 nM.

Regarding `C=CC(=O)N1C[C@H](C)N(C2=NS(=O)(=O)N(c3c(C)ccnc3C(C)C)c3nc(-c4ccccc4C)c(Cl)cc32)C[C@H]1C` (single isomer, unassigned) [Example 1-12-2], the IC50 was determined as 3550 nM. The value for `C=CC(=O)N1C[C@H](C)N(C2=NS(=O)(=O)N(c3ccccc3C(C)(C)C)c3nc(-c4ccccc4S(C)(=O)=O)c(Cl)cc32)C[C@H]1C` [Example 1-10] was 110 nM; that for `C=CC(=O)N1C[C@H](C)N(C2=NS(=O)(=O)N(c3c(C)cc(CN(C)C)nc3C(C)C)c3nc(-c4ccccc4F)c(Cl)cc32)C[C@H]1C` [Example 4, 1-((2R,5S)-4-(6-Chloro-1-(6-((dimethylamino)methyl)-4-methyl-2-(2-propanyl)-3-pyridinyl)-7-(2-fluorophenyl)-2,2-dioxido-1H-pyrido[2,3-c][1,2,6]thiadiazin-4-yl)-2,5-dimethyl-1-piperazinyl)-2-propen-1-one] was 5960 nM. For `C=CC(=O)N1C[C@H](C)N(C2=NS(=O)(=O)N(c3c(C)cc(N)nc3C(C)C)c3nc(-c4ccccc4F)c(Cl)cc32)C[C@H]1C` (atropisomer, axis not shown) [Example 10, 1-((2R,5S)-4-(1-(6-Amino-4-methyl-2-(2-propanyl)-3-pyridinyl)-6-chloro-7-(2-fluorophenyl)-2,2-dioxido-1H-pyrido[2,3-c][1,2,6]thiadiazin-4-yl)-2,5-dimethyl-1-piperazinyl)-2-propen-1-one] the value was 1270 nM.

For `C=CC(=O)N1C[C@H](C)N(C2=NS(=O)(=O)N(c3c(C)cc(N)nc3C(C)C)c3nc(-c4ccccc4F)c(Cl)cc32)C[C@H]1C` (atropisomer, axis not shown) [Example 10-2, 1-((2R,5S)-4-(1-(6-amino-4-methyl-2-(2-propanyl)-3-pyridinyl)-6-chloro-7-(2-fluorophenyl)-2,2-dioxido-1H-pyrido[2,3-c][1,2,6]thiadiazin-4-yl)-2,5-dimethyl-1-piperazinyl)-2-propen-1-one], the concentration for half-maximal inhibition (IC50) came out at 390 nM. For `C=CC(=O)N1C[C@H](C)N(C2=NS(=O)(=O)N(c3ccccc3C(C)(C)C)c3nc(-c4ccccc4S(C)(=O)=O)c(Cl)cc32)C[C@H]1C` (atropisomer, axis not shown) [Example 1-10-2] the value was 5950 nM. Turning to `C=CC(=O)N1C[C@H](C)N(C2=NS(=O)(=O)N(c3ccccc3C(C)(C)C)c3nc(-c4ccccc4F)c(Cl)cc32)C[C@H]1C` [Example 1-1-1, 1-((2R,5S)-4-(6-chloro-7-(2-fluorophenyl)-1-(2-(2-methyl-2-propanyl)phenyl)-2,2-dioxido-1H-pyrido[2,3-c][1,2,6]thiadiazin-4-yl)-2,5-dimethyl-1-piperazinyl)-2-propen-1-one], the half-inhibitory concentration (IC50) stood at 150 nM.

Consider `C=CC(=O)N1C[C@H](C)N(C2=NS(=O)(=O)N(c3ccccc3C(C)(C)C)c3nc(-c4ccccc4S(C)(=O)=O)c(Cl)cc32)C[C@H]1C` (atropisomer, axis not shown) [Example 1-10-1], for which the half-inhibitory concentration (IC50) worked out at 80 nM. For the molecule `C=CC(=O)N1C[C@H](C)N(C2=NS(=O)(=O)N(c3c(N)ncnc3C(C)C)c3nc(-c4ccccc4F)c(Cl)cc32)C[C@H]1C` (single isomer, unassigned) [Example 9-2], the IC50 came to 11200 nM. Consider `C=CC(=O)N1C[C@H](C)N(C2=NS(=O)(=O)N(c3ccccc3C(C)(C)C)c3nc(-c4c(N)cccc4F)c(Cl)cc32)C[C@H]1C` (single isomer, unassigned) [Example 1-8-1], for which the IC50 stood at 10 nM. In the case of `C=CC(=O)N1C[C@H](C)N(C2=NS(=O)(=O)N(c3ccccc3C(C)(C)C)c3nc(-c4ccccc4F)c(Cl)cc32)C[C@H]1C` [Example 1-1-2, 1-((2R,5S)-4-(6-chloro-7-(2-fluorophenyl)-1-(2-(2-methyl-2-propanyl)phenyl)-2,2-dioxido-1H-pyrido[2,3-c][1,2,6]thiadiazin-4-yl)-2,5-dimethyl-1-piperazinyl)-2-propen-1-one], the IC50 is 70800 nM. For `C=CC(=O)N1C[C@H](C)N(C2=NS(=O)(=O)N(c3ccc(CN(C)C)cc3C(C)(C)C)c3nc(-c4ccccc4F)c(Cl)cc32)C[C@H]1C` [Example 1-13-1, 1-((2R,5S)-4-(6-chloro-1-(4-((dimethylamino)methyl)-2-(2-methyl-2-propanyl)phenyl)-7-(2-fluorophenyl)-2,2-dioxido-1H-pyrido[2,3-c][1,2,6]thiadiazin-4-yl)-2,5-dimethyl-1-piperazinyl)-2-propen-1-one] the value was 40 nM. For `C=CC(=O)N1C[C@H](C)N(C2=NS(=O)(=O)N(c3c(CC)cccc3CC)c3nc(-c4ccccc4F)c(Cl)cc32)C[C@H]1C` [Example 1-6, 1-((2R,5S)-4-(6-chloro-1-(2,6-diethylphenyl)-7-(2-fluorophenyl)-2,2-dioxido-1H-pyrido[2,3-c][1,2,6]thiadiazin-4-yl)-2,5-dimethyl-1-piperazinyl)-2-propen-1-one] the value was 2690 nM; for `C=CC(=O)N1C[C@H](C)N(C2=NS(=O)(=O)N(c3c(C)cnn3C(C)C)c3nc(-c4ccccc4F)c(Cl)cc32)C[C@H]1C` (single isomer, unassigned) [Example 1-11-1], 540 nM.

Turning to `C=CC(=O)N1C[C@H](C)N(C2=NS(=O)(=O)N(c3c(C)ccnc3C(C)C)c3nc(-c4ccccc4C)c(Cl)cc32)C[C@H]1C` [Example 1-12, 1-((2R,5S)-4-(6-chloro-7-(2-methylphenyl)-1-(4-methyl-2-(2-propanyl)-3-pyridinyl)-2,2-dioxido-1H-pyrido[2,3-c][1,2,6]thiadiazin-4-yl)-2,5-dimethyl-1-piperazinyl)-2-propen-1-one], the IC50 is 600 nM. For `C=CC(=O)N1CCN(C2=NS(=O)(=O)N(c3ccccc3C(C)C)c3nc(-c4c(O)cccc4F)c(F)cc32)[C@@H](C)C1` [Example 5, 1-((3S)-4-(6-Fluoro-7-(2-fluoro-6-hydroxyphenyl)-1-(2-isopropylphenyl)-2,2-dioxido-1H-pyrido[2,3-c][1,2,6]thiadiazin-4-yl)-3-methylpiperazin-1-yl)prop-2-en-1-one] the value was 1030 nM.

The values are drawn from patent US10988485B2 (Amgen Inc., priority 2018, dated 2021).
